Assay results taken from patent US20130136778A1, “PTEROSTILBENE (PTER) FOR USE IN THE PREVENTION AND/OR TREATMENT OF SKIN DISEASES, DAMAGES OR INJURIES” (GREEN MOLECULAR, S.L., priority 2009, published 2013).

Experiments:
SKH-1 mice [1] = assay: Anatomopathological study of the skin after chronic exposure to UV-B; assay type: in vivo; details: chronic UV-B irradiation
Protocol: Histochemical techniques were used to study the skin tissues of the different procedures, at a microscopic level.
The tissues were fixed in 4% formaldehyde in PBS over 24 h at 22° C. After the tissues were fixed, they had to be dehydrated in large amounts of ethanol and placed in a hydrophobic and xylene mixture to allow the paraffin to penetrate the tissues to provide sufficient consistency for slicing them thinly in a microtome.
The samples in paraffin were processed with the microtome obtaining slices of about 5-10 μm. The samples were spread over a drop of gelatin at 37° C. and were collected in gelatinized slides.
The protocol used for staining the samples was: • 1. Incubation with Mayer's Hematoxylin for 10-15 minutes. • 2. Wash under running water until bluish. • 3. Incubate with Eosin (1%) for 2-4 minutes. • 4. Eliminate the remaining eosin in ethanol 70° • 5. Dehydration. • 6. Rinse with xylol for 3 minutes. • 7. Let the trays dry out on the stove at 37°.
In relation to the histopathological exam of the tumors induced by chronic irradiation to UV in the SKH1 mice, it was confirmed that the treatment with UV-B produced a strong acanthosis due primarily to the inflammatory process; this gave way to the first signs of tumors, mostly of carcinoma type and not melanoma.
Both the reference compounds and the ones subject of this study (10 μmoles/mouse of polyphenols, or 200 μl of each photoprotector) were applied to the back of the mice for 20 minutes prior to their exposure to UV-B. Medium of groups of 20 mice. Every parameter was measured according to the degree of seriousness (+) light-(+++) serious.

SKH-1 mice [2] = assay: Skinfold thickness (edema) after acute UV-B exposure of 360 mJ/cm2; assay type: in vivo
Protocol: UVB Acute exposure protocols were used: Mice underwent a single exposure of 360 mJ/cm2. The study was conducted at 24 hours after exposure. This protocol was used to evaluate the photoprotective effect of the compounds studied. With the same acute-phase protocol mice from all groups were irradiated. Subsequently mice remained in the animal storage area for a week to see the evolution of the inflammatory response and edema. For the UVB exposure studies (chronic or acute) a topical administration to the back of the mouse was conducted. The commercial sunscreens were applied directly on the mouse. The polyphenols in the study were administered in a liposomal preparation diluted 1:1 with Carbopol polymer which will be the vehicle for these liposomes. Each polyphenol dose administered was 10 μmol/mouse, as free acid. • 1. Edema formation: skinfold thickness was determined with a caliper 24 hours after the first exposure. • 2. Study of the thickness of the epidermis after exposure to acute irradiation (360 mj/cm^2 24 h hours and 7 days after irradiation). • 3. Histological studies: measuring, in the pictures obtained from histological sections, the thickness of the epidermis. With the purpose of assessing the effects of the photoprotective compounds studied, female mice SKH-1 of between 6-8 weeks old were subjected to a single exposure of 360 mJ/cm. For the ultraviolet B (UVB) irradiation exposure, a camera specifically prepared, available at our laboratory was used (Crosslinker; Bio-Link BLX 254) equipped with 5 tubes that produce 80% of the UVB radiation, with a maximum emission of 312 nm. The two protocols of UV-B exposure used were: • Intense exposure after a single exposure of 360 mJ/cm^2. The study was carried out 24 hours after the exposure. This protocol was used to assess the photoprotective effects of the compounds studied. • Intense exposure after a single exposure of 360 mJ/cm^2. The study was carried out 1 week after the exposure. The mice were kept in the shed for a week to observe the evolution of the inflammatory and edematous response. As reference, several commercial photoprotective products were used ([…] Heliocare). The reference compounds as well as the products object of this study, were applied on the back of the mice for 20 minutes after or 20 minutes before the irradiation with UV-B, to determine if the reaction observed was due to an effect of the solar filter or not. […] The skinfold was measured by making a fold on the skin from the back of the mice, from the axillae to the hips; the fold was measured with a vernier caliper. The increase in the fold was calculated by the difference between the initial point, before the effects of the reaction, and the thickness in each point.

With `COc1cc(/C=C/c2ccc(O)cc2)cc(OC)c1` [PTER, 3,5-dimethoxy-4′-hydroxy-trans-resveratrol] the “anti-inflammatory and anti-tumor formation effect, histopathological exam” value (SKH-1 mice [1]) was “the compound with greatest benefits”, the “formation of the edema (thickness of the skin) after severe UV-B exposure” value (SKH-1 mice [2]; FIG. 1) was “the formation of the edema was reduced” and the “skinfold thickness 24 h after irradiation, applied after UVB” value (SKH-1 mice [2]; FIG. 1, applied 20 min after) was “more efficient for the treatment of skin diseases, damages or injuries due to radiation, when applied after the exposure to UVB, than the commercial creams (Vichy, Heliocare and Isdin) and that RESV”. The “skinfold thickness 24 h after irradiation, applied before UVB” value (SKH-1 mice [2]; FIG. 1, applied 20 min before) was “more efficient as photoprotector, when applied before the exposure to UVB, than the commercial creams (Vichy, Heliocare and Isdin) and that RESV”.
